This note sets out measurements from patent US20240000948A1, “METHODS FOR TREATING EYE DISEASES USING LIPID BINDING PROTEIN-BASED COMPLEXES” (ABIONYX PHARMA SA, priority 2020, published 2024).

For one data set, the system named is eyes of albino rabbits. It counts as in vivo. To be noted: for ocular tolerance: albino rabbits, CER-001 8 mg/ml (protein weight basis).
Data set [1] has as its system vision impairment related to LCAT deficiency (ocular lipid deposits). The data set can be described thus: CER-001 therapy for LCAT deficiency-related vision impairment. It counts as in vivo, human. The protocol: A subject with LCAT deficiency and having vision impairment related to the subject's LCAT deficiency (said vision impairment being due to ocular lipid deposits) was administered CER-001 according to a treatment regimen comprising an induction regimen, a consolidation regimen, and a maintenance regimen.
Prior to treatment with CER-001, the subject had ocular lipid deposits presenting as white corneal ring opacities. The subject had normal visual acuity but visual blur, especially at night. […] Next-generation sequencing confirmed the subject as compound-heterozygous for two LCAT gene variations, but none in the ABCA1 or APOA1 genes. The first allele, motherly inherited, is an exon-5 (c.605T>C) missense mutation p.(Ile202Thr), previously well-established as familial LCAT deficiency (FLD)-causing in Europe. The paternal allele (c.154+5G>C), was novel and absent from general referral population databases. It alters a highly evolutionary-conserved residue of intron-1 donor splice-site, thereby potentially altering exon-1 mRNA-splicing and creating a cryptic acceptor splice-site at position c.154+15. […]
The induction regimen comprised nine doses of CER-001 administered over three weeks. The dose of CER-001 administered in the […] regimen was 10 mg/kg, calculated based upon the amount of ApoA-I in the CER-001 administered and the weight of the subject.
Following the induction regimen, the subject was administered CER-001 according to a consolidation regimen comprising seven doses of CER-001 administered over four weeks. The dose of CER-001 administered in the […] regimen was 10 mg/kg, calculated based upon the amount of ApoA-I in the CER-001 administered and the weight of the subject.
Following the consolidation regimen, the subject was administered CER-001 according to a maintenance regimen comprising once a week administration of CER-001 for three weeks. The dose of CER-001 administered in the maintenance regimen was 10 mg/kg calculated based upon the amount of ApoA-I in the CER-001 to be administered and the weight of the subject. […]

Data set [2] in a line: CER-001 as carrier for ophthalmic drugs: appearance of samples after thermal cycling. The data set is classed as physicochemical. The protocol: A solution of CER-001 was mixed with azithromycin to provide a final azithromycin concentration of 10 mg/ml and subjected to five heating and cooling cycles from 37° C. to 55° C. to promote complexation of azithromycin to CER-001. For controls, a sample of CER-001 without added azithromycin and a sample of azithromycin at a concentration of 10 mg/ml in phosphate buffered saline (PBS) were similarly subjected to five heating and cooling cycles from 37° C. to 55° C.
A solution of CER-001 was mixed with spironolactone to provide a final spironolactone concentration of 1.5 mg/ml and subjected to five heating and cooling cycles from 37° C. to 55° C. to promote complexation of spironolactone to CER-001. For controls, a sample of CER-001 without added spironolactone and a sample of spironolactone at a concentration of 1.5 mg/ml in phosphate buffered saline (PBS) were similarly subjected to five heating and cooling cycles from 37° C. to 55° C.
A solution of CER-001 was mixed with cyclosporine to provide a final cyclosporine concentration of 1 mg/ml and subjected to five heating and cooling cycles from 37° C. to 55° C. to promote complexation of cyclosporine to CER-001. For controls, a sample of CER-001 without added cyclosporine and a sample of cyclosporine at a concentration of 1 mg/ml in phosphate buffered saline (PBS) were similarly subjected to five heating and cooling cycles from 37° C. to 55° C.

Data set [3] concerns endotoxin-induced uveitis (severe inflammation). It counts as in vivo. Particulars: albino rabbits. The procedure:
CER-001 vehicle and Solu-Medrol®, an injectable formulation containing the anti-inflammatory glucocorticoid methylprednisolone sodium succinate, were included as controls. Tolerance was assessed by the McDonald-Shadduck scoring system (see, Eaton et al., Journal of Ocular Pharmacology and Therapeutics 33(10):718-734) 6 and 24 hours after administration. Cell infiltration and protein content in the aqueous humor were measured 24 hours after administration.

Read-outs that look alike come from different tables or passages of the source.

Consider “CER-001: lipoprotein complex of ApoA-I and phospholipids, 1:2.7 lipoprotein weight:total phospholipid weight ratio, SM:DPPG weight ratio 97:3”, for which the ocular tolerance result in the data set on eyes of albino rabbits (repeated topical administration of up to 8 drops) and in the data set with eyes of albino rabbits (single intravitreal administration) was “No tolerance issues were observed” in each case. In addition, the “ocular tolerance (statement referring to Examples 3 and 4)” value in the data set on eyes of albino rabbits (even with repeated administrations) is “good ocular tolerance”. Further, the “visual blur at the end of the follow-up period” value in data set [1] (end of 3 months off-treatment follow-up) was “did not recur”. Besides, in data set [1] (one subject with LCAT deficiency, IV infusion 10 mg/kg, later 20 mg/kg, 5 months treatment), the “effect of administration on vision” value is “normalization of vision”. In data set [1] (one subject with LCAT deficiency, IV infusion 10 mg/kg, later 20 mg/kg, induction, consolidation, maintenance, 5 months treatment), the “subject's vision during treatment” value is “improved during the course of treatment”. For the same molecule, the “appearance of sample following the heating and cooling cycles” value (shortened to “appearance”) in data set [2] (CER-001 without added drug, five heating and cooling cycles from 37° C. to 55° C.) was “remained clear”. The “complexation with ophthalmic drugs (summary of Example 1)” value in data set [2] (thermal cycling 37° C. to 55° C.) is “can complex with azithromycin, spironolactone, dexamethasone palmitate, and cyclosporine”. The “cell infiltration in the aqueous humor” value in data set [3] (24 hours after administration, FIG. 3A) is “positive effect”. The “protein in the aqueous humor” value in data set [3] (24 hours after administration, FIG. 3B) was “positive effect”. In addition, in data set [3] (single intravitreal administration, including 8 mg/ml, 6 and 24 hours, FIGS. 2A-2C), the “tolerance (McDonald-Shadduck scoring system)” value is reported as “induced significant tolerance”.
With `CC(=O)S[C@@H]1CC2=CC(=O)CC[C@]2(C)[C@H]2CC[C@@]3(C)[C@@H](CC[C@@]34CCC(=O)O4)[C@H]12` [spironolactone, reference compound], in data set [2] (spironolactone 1.5 mg/ml in PBS, five cycles 37° C. to 55° C., FIG. 1B), the “appearance” value is “contained numerous crystals in the liquid, on the glass tube, and above the meniscus”.
Consider `CC[C@H]1OC(=O)[C@H](C)[C@@H](O[C@H]2C[C@@](C)(OC)[C@@H](O)[C@H](C)O2)[C@H](C)[C@@H](O[C@@H]2O[C@H](C)C[C@H](N(C)C)[C@H]2O)[C@](C)(O)C[C@@H](C)CN(C)[C@H](C)[C@@H](O)[C@]1(C)O` [azithromycin, reference compound], for which the “appearance” value in data set [2] (azithromycin 10 mg/ml in PBS, five cycles 37° C. to 55° C., FIG. 1A) is “contained numerous crystals in the liquid and on the glass tube”.
